Measured values taken from US4874759A, “5-Hydroxyindole-3-carboxylic acid amide compounds, pharmaceutical compositions and use” (Yoshitomi Pharmaceutical Industries, Ltd., priority 1987, dated 1989).
Each block holds one compound with its values, some of them ahead of it.

Experiments:
[1] = Diuretic action (oral administration to rats; urine volume and electrolytes excreted within 6 hours); format: in vivo, Male Wistar strain rats; details: rat, p.o., average value ± average error
Procedure: Male Wistar strain rats (each weighing 180 to 220 g, six animals per group) were subjected to the experiment after they had been fasted for 18 hours and further deprived of food and water for 3 hours.
After the rats were orally administered with test compounds suspended in a 0.9% saline solution at the dose of 25 ml/kg, each of them was put in a metabolic cage. The urine excreted within 6 hours after the administration was collected, and the urine volume and sodium (Na), potassium (K) and chlorine (Cl) ions were assayed. The urine sodium and potassium ions were measured by the flame spectrophotometry and the chlorine ions were measured by the chloride counter.
The test compounds were the compounds described below in Examples and the following (as applies to the following Pharmacological Experimental Examples), and the compounds numbers respectively correspond to the compound numbers described at the end of the compound names recited in Examples and the following. In the table, each of the numerals represents average value±average error and the mark * designates that the value is statistically significant as compared with the control by P<0.05 and mark ** designates that the value is statistically signficant by P<0.01.

[2] = Acute toxicity (mortality) in mice; format: in vivo, ddY strain mice; details: ddY mice, 300 mg/kg
[3] = test system: left coronary artery; experiment: Action on coronary blood flow (perfused left coronary artery of anesthetized dog); format: in vivo, mongrel adult dog; details: intracoronary, dose increasing coronary blood flow to 50% of the effect of 3 μg Nifedipine
Procedure: A mongrel adult dog was anesthetized by intravenous administration with sodium pentobarbital at the dose of 30 mg/kg body weight. In accordance with the method by Yago et al [Folia pharmacologica japonica, vol. 57, p. 380 (1961)], the left coronary artery was perfused and the volume of blood flow was measured. The test compounds were administered in the coronary artery at a dosage of 10 to 30 μl. The effects of the test compounds on the coronary blood flow were represented by ED50 (μg) which was determined as the dose required for increasing the coronary blood flow to the level of 50% of the effect which was attained by administering the coronary artery 3 μg of Nifedipine [dimethyl 2,6-dimethyl-4-(2-nitrophenyl)-1,4-dihydropyridine-3,5-dicarboxylate].

[4] = test system: right vertebrartery; experiment: Action on vertebrarterial blood flow (perfused right vertebral artery of anesthetized dog); format: in vivo, mongrel adult dog; details: into vertebral artery, maximum increase by 100 μg papaverine hydrochloride = 100%
Procedure: After mongrel adult dog was anesthetized by intravenous administration of sodium pentobarbital at the dose of 25 mg/kg body weight, the right vertebrartery was perfused and the volume of blood flow was measured. The test compounds were administered in the vertebral artery.
With the maximum increase rate in the blood flow being taken as 100% when 100 μg of papaverine hydrochloride (1-[(3,4-dimethoxyphenyl)methyl]-6,7-dimethoxyisoquinoline hydrochloride) was administered in the vertebral artery, the effects of the test compounds were represented by ED100 (μg) which denotes the dose required for attaining an increased rate of the blood flow of 100%.

[5] = molecular target: T1, 5-lipoxygenase (Cavia porcellus, UniProt A0A286X958); experiment: 5-Lipoxygenase-inhibitory action (5-HETE production from arachidonic acid); format: biochemical; details: 3.4 μM [1-14C] arachidonic acid, 105,000×g supernatant of guinea pig polymorph leukocyte, 30° C., 3 minutes; read-out: 50% inhibitory concentration against the production of 5-HETE
T1 construct: supernatant fraction of intraperitoneal polymorph leukocyte of guinea pigs was prepared; from tissue; host or cells: peritoneal polymorphonuclear leukocytes of male guinea pigs (casein-elicited), 105,000×g supernatant
T1 sequence (A0A286X958 1-674): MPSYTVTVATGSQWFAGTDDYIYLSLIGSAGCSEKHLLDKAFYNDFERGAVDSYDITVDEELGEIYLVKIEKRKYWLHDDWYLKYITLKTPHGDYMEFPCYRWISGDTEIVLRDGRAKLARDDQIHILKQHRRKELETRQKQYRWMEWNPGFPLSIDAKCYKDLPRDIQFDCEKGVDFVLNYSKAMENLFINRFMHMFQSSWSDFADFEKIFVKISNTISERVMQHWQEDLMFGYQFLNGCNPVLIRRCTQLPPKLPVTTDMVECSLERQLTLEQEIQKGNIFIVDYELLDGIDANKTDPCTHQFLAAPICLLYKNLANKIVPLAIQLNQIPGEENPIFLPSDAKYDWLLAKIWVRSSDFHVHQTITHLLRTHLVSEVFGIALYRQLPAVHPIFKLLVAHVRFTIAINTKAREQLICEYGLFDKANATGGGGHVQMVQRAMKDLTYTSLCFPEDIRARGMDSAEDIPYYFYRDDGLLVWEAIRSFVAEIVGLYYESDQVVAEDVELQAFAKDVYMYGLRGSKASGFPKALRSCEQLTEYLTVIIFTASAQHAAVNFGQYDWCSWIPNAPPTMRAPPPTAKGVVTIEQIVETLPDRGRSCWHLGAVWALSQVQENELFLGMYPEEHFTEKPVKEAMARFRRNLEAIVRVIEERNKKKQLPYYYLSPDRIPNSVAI
Procedure: In accordance with the method of Ochi et al (J. Biol. Chem., vol. 258, pp. 5754-5758 (1983)), the 105,000×g supernatant fraction of intraperitoneal polymorph leukocyte of guinea pigs was prepared, and the capability of producing 5-hydroxyeicosatetraenoic acid (5-HETE) from arachidonic acid was assayed.
Male guinea pigs weighing about 500 g were intraperitoneally administered with 1/10 volume (at the dose of 10 ml/100 g body weight) of a 2% casein solution and operated in the abdomen 16-18 hours after the administration. The intraperitoneal effusion was taken and the insdie of the abdomen was washed with a saline solution containing 10 mM phosphate buffer solution (pH 7.4) twice. The obtained effusion and the washing solution were collected and centrifuged at 150×g for five minutes. A 0.2% saline solution was added to the sediment, followed by hypotonic treatment to subject the mixed erythrocyte to hemolysis. After a 1.6% saline solution was added thereto to make the mixture isotonic, it was centrifuged in the same manner and suspended in 50 mM Hepes buffer solution (pH 8.0). The suspension was treated with supersonic waves (by Branson sonifier, model 185) and centrifuged at 10,000×g for 10 minutes. The supernatant was further centrifuged at 105,000×g for 60 minutes. The supernatant thus obtained was taken as the 5-lipoxygenase fraction which was freezed to -70° C. to be preserved. […]

Structure (SMILES): CCCCN(CCCC)C(=O)c1c(C)[nH]c2ccc(O)c(CN3CCCCC3)c12 [Compound (17), N,N-Dibutyl-5-hydroxy-2-methyl-4-piperidinomethylindole-3-carboxamide]
Excretion of Electrolyte, Cl ([1]; 10.0 mg/kg): 358 ± 25 μeq/100 g body weight/ 6 hrs.
Excretion of Electrolyte, K ([1]; 10.0 mg/kg): 64 ± 4 μeq/100 g body weight/ 6 hrs.
Excretion of Electrolyte, Na ([1]; 10.0 mg/kg): 346 ± 28 μeq/100 g body weight/ 6 hrs.
Excretion of Electrolyte, Na/K ([1]; 10.0 mg/kg): 5.7 ± 0.9
Urine Volume ([1]; 10.0 mg/kg): 2.4 ± 0.2 ml/100 g body weight/ 6 hrs.

Structure (SMILES): Cc1[nH]c2cc(Br)c(O)c(CN3CCCCC3)c2c1C(=O)N1CCOCC1 [Compound (2), 4-(6-Bromo-5-hydroxy-2-methyl-4-piperidinomethyl-1H-indol-3-ylcarbonyl)morpholine]
Excretion of Electrolyte, Cl ([1]; 3.0 mg/kg): 349 ± 27 μeq/100 g body weight/ 6 hrs.
Excretion of Electrolyte, K ([1]; 3.0 mg/kg): 95 ± 7 μeq/100 g body weight/ 6 hrs.
Excretion of Electrolyte, Na ([1]; 3.0 mg/kg): 284 ± 30 μeq/100 g body weight/ 6 hrs.
Excretion of Electrolyte, Na/K ([1]; 3.0 mg/kg): 3.1 ± 0.3
Urine Volume ([1]; 3.0 mg/kg): 2.0 ± 0.2 ml/100 g body weight/ 6 hrs.
Death of mice ([2]; intraperitoneal): none of them was observed to die
Death of mice ([2]; oral): none of them was observed to die

Structure (SMILES): CCCCCCn1c(C)c(C(=O)N(CCCC)CCCC)c2c(CN3CCCCC3)c(O)c(C(=O)CC)cc21 [Compound (6), N,N-dibutyl-1-hexyl-5-hydroxy-2-methyl-4-piperidinomethyl-6-propionylindole-3-carboxamide]
Coronary vasodilating action, ED50 [3]: 10 µg
Vertebrarterial vasodilating action, ED100 [4]: 48 µg

IC50 [5]: 19 µM
Structure (SMILES): CCCCN(CCCC)C(=O)c1c(C)n(-c2ccccc2)c2cc(C(=O)CC)c(O)c(CN3CCCCC3)c12 [Compound (25), N,N-Dibutyl-5-hydroxy-2-methyl-1-phenyl-4-piperidinomethyl-6-propionylindole-3-carboxamide]
Coronary vasodilating action, ED50 [3]: 22 µg
Vertebrarterial vasodilating action, ED100 [4]: 76 µg

Structure (SMILES): CCCCNC(=O)c1c(C)n(CCCC)c2ccc(O)c(CN3CCCCC3)c12 [Compound (8), 1,N-Dibutyl-5-hydroxy-2-methyl-4-piperidinomethylindole-3-carboxamide]
Coronary vasodilating action, ED50 [3]: 63 µg
Vertebrarterial vasodilating action, ED100 [4]: 58 µg

Structure (SMILES): CCCCN(CCCC)C(=O)c1c(C)n(CCc2ccccc2)c2cc(C(=O)CC)c(O)c(CN3CCCCC3)c12 [Compound (4), N,N-Dibutyl-5-hydroxy-2-methyl-1-(2-phenylethyl)-4-piperidinomethyl-6-propionylindole-3-carboxamide]
Coronary vasodilating action, ED50 [3]: 12 µg
Vertebrarterial vasodilating action, ED100 [4]: 63 µg
IC50 [5]: 20 µM

Structure (SMILES): CCCCNC(=O)c1c(C)[nH]c2cc(Br)c(O)c(CN3CCCCC3)c12 [Compound (10), 6-Bromo-N-butyl-5-hydroxy-2-methyl-4-piperidinomethylindole-3-carboxamide]
Excretion of Electrolyte, Cl ([1]; 10.0 mg/kg): 379 ± 35 μeq/100 g body weight/ 6 hrs.
Excretion of Electrolyte, K ([1]; 10.0 mg/kg): 73 ± 8 μeq/100 g body weight/ 6 hrs.
Excretion of Electrolyte, Na ([1]; 10.0 mg/kg): 402 ± 43 μeq/100 g body weight/ 6 hrs.
Excretion of Electrolyte, Na/K ([1]; 10.0 mg/kg): 5.8 ± 0.7
Urine Volume ([1]; 10.0 mg/kg): 2.6 ± 0.3 ml/100 g body weight/ 6 hrs.
